Each structure is given as a SMILES string. pEC50: −log10 of the molar value.

We go through 33 compounds from US20230339886A1 (University of Florida Research Foundation, Incorporated, priority 2020, published 2023).

The target of this assay is T1, REV-ERBα LBD (human; residues 281-614 Δ324-422) (Homo sapiens, UniProt P20393, DEL324-422).
T1 construct: 6×Histag-REV-ERBα LBD (human; residues 281-614 Δ324-422); made in house; host or cells: Escherichia coli
T1 sequence (P20393 with tags, fused parts or gaps DEL324-422): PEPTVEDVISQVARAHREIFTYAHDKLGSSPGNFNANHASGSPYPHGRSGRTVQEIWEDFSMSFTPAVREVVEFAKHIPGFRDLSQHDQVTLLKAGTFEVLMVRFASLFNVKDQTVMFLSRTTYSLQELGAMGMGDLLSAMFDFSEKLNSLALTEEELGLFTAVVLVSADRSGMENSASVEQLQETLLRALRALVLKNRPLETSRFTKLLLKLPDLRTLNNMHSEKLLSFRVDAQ
T1 sequence (Q9Y618 2335-2356 partner limits assumed): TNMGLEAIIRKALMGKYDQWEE
The assay is described as follows: TR-FRET corepressor interaction assay (REV-ERBα LBD, FITC-SMRT peptide). The format is biochemical. The settings on record: Table 2, read-out: REVERBα agonism (EC50 class, FRET assay). Summed up: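 Compound serial dilutions (in DMSO, triplicate) incubated 2 h at 4 °C; Tb donor excited at 340 nm, emission read at 495 nm and FITC acceptor at 520 nm. TR-FRET ratio (520/495 nm) plotted against ligand concentration and fitted to a sigmoidal dose-response curve.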
In general terms: Time-resolved FRET reads energy transfer from a long-lived donor to a nearby acceptor.
`CC(C)(C)Cc1cn(CCNS(=O)(=O)C2CC2)c2ccc(C(F)(F)F)cc12` [Example 292, N-(2-(3-neopentyl-5-(trifluoromethyl)-1H-indol-1-yl)ethyl)cyclopropanesulfonamide]: the pEC50 is 5.52 to 6.30.

Take `CC(C)(C)Cc1cn(CCNS(=O)(=O)C2CC2)c2cc(F)c(Br)cc12` [Example 293, N-(2-(5-bromo-6-fluoro-3-neopentyl-1H-indol-1-yl)ethyl)cyclopropanesulfonamide]: the negative-log EC50 (pEC50) is under 5.52.

As for `CC(C)(C)Cc1cn(CCNS(=O)(=O)C2CC2)c2cc(F)c(-c3ccc(F)cc3C(F)(F)F)cc12` [Example 294], the negative logarithm of the EC50 (pEC50) is over 6.30.

On to `CC(C)(C)Cc1cn(CCNS(=O)(=O)C2CC2)c2ccc(-c3ccc(F)cc3C(F)(F)F)c(F)c12` [Example 295], for which the pEC50 was 5.52 to 6.30.

For the compound `Cc1ccccc1-c1ccc2c(c1)c(CC(C)(C)C)cn2CCNS(=O)(=O)C1CC1` [Example 302, N-(2-(3-neopentyl-5-(o-tolyl)-1H-indol-1-yl)ethyl)cyclopropanesulfonamide], the negative logarithm of the EC50 (pEC50) is over 6.30.

Take `COc1ccccc1-c1ccc2c(c1)c(CC(C)(C)C)cn2CCNS(=O)(=O)C1CC1` [Example 303, N-(2-(5-(2-methoxyphenyl)-3-neopentyl-1H-indol-1-yl)ethyl)cyclopropane-sulfonamide]: the negative-log EC50 (pEC50) is over 6.30.

`CC(C)(C)Cc1cn(CCNS(=O)(=O)C2CC2)c2ccc(-c3ccccn3)cc12` [Example 304, N-(2-(3-neopentyl-5-(pyridin-2-yl)-1H-indol-1-yl)ethyl)cyclopropanesulfonamide]: the negative logarithm of the EC50 (pEC50) was 5.52 to 6.30.

Take `CC(C)(C)Cc1cn(CCNS(=O)(=O)C2CC2)c2ccc(-c3cccnc3)cc12` [Example 305, N-(2-(3-neopentyl-5-(pyridin-3-yl)-1H-indol-1-yl)ethyl)cyclopropanesulfonamide]: the negative logarithm of the EC50 (pEC50) is 5.52 to 6.30.

As for `CC(C)Cn1cc([C@H](NS(=O)(=O)C2CC2)C(F)(F)F)c2ccc(Br)cc21` [Example 306, (S)—N-(1-(6-bromo-1-isobutyl-1H-indol-3-yl)-2,2,2-trifluoroethyl)cyclopropanesulfonamide], the pEC50 is over 6.30.

Regarding `CC(C)Cn1cc([C@H](NS(=O)(=O)C2CC2)C(F)(F)F)c2ccc(-c3ccncc3)cc21` [Example 307, (S)—N-(2,2,2-trifluoro-1-(1-isobutyl-6-(pyridin-4-yl)-1H-indol-3-yl)ethyl)cyclopropanesulfonamide], the pEC50 is over 6.30.

In the case of `CC(C)Cn1cc([C@H](NS(=O)(=O)C2CC2)C(F)(F)F)c2ccc(-c3ccc(F)cc3)cc21` [Example 308, (S)—N-(2,2,2-trifluoro-1-(6-(4-fluorophenyl)-1-isobutyl-1H-indol-3-yl)ethyl)cyclopropanesulfonamide], the pEC50 is 5.52 to 6.30.

For the compound `CC(C)Cn1cc([C@H](NS(=O)(=O)C2CC2)C(F)(F)F)c2ccc(-c3ccccc3Cl)cc21` [Example 311, (S)—N-(1-(6-(2-chlorophenyl)-1-isobutyl-1H-indol-3-yl)-2,2,2-trifluoroethyl)cyclopropanesulfonamide], the pEC50 was over 6.30.

Take `Cc1cc2c(cc1F)c([C@H](NS(=O)(=O)C1CC1)C(F)(F)F)cn2CC(C)C` [Example 312, (S)—N-(2,2,2-trifluoro-1-(5-fluoro-1-isobutyl-6-methyl-1H-indol-3-yl)ethyl)cyclopropanesulfonamide]: the negative-log EC50 (pEC50) was over 6.30.

For `CC(C)Cn1cc([C@H](NS(=O)(=O)C2CC2)C(F)(F)F)c2cc(F)c(-c3ccccc3Cl)cc21` [Example 314, (S)—N-(1-(6-(2-chlorophenyl)-5-fluoro-1-isobutyl-1H-indol-3-yl)-2,2,2-trifluoroethyl)cyclopropanesulfonamide], the negative logarithm of the EC50 (pEC50) is over 6.30.

Consider `CC(C)Cn1cc([C@H](NS(=O)(=O)C2CC2)C(F)(F)F)c2cc(F)c(C3CC3)cc21` [Example 315, (S)—N-(1-(6-cyclopropyl-5-fluoro-1-isobutyl-1H-indol-3-yl)-2,2,2-trifluoroethyl)cyclopropanesulfonamide], for which the pEC50 was over 6.30.

For `CC(C)(C)Cn1cc([C@H](NS(=O)(=O)C2CC2)C(F)(F)F)c2cc(F)c(-c3ccccc3C(F)(F)F)cc21` [Example 319, (S)—N-(2,2,2-trifluoro-1-(5-fluoro-1-neopentyl-6-(2-(trifluoromethyl)phenyl)-1H-indol-3-yl)ethyl)cyclopropanesulfonamide], the negative-log EC50 (pEC50) was over 6.30.

As for `CC(C)Cn1cc([C@H](NS(=O)(=O)N(C)C)C(F)(F)F)c2cc(F)c(-c3ccccc3C(F)(F)F)cc21` [Example 320, dimethyl({[(1S)-2,2,2-trifluoro-1-[5-fluoro-1-(2-methylpropyl)-6-[2-(trifluoromethyl)phenyl]-1H-indol-3-yl]ethyl]sulfamoyl})amine], the pEC50 is over 6.30.

For `CC(C)Cn1cc([C@H](NS(=O)(=O)C2CC2)C(F)(F)F)c2ccc(-c3ccc(F)cc3C(F)(F)F)cc21` [Example 324, (S)—N-(2,2,2-trifluoro-1-(6-(4-fluoro-2-(trifluoromethyl)phenyl)-1-isobutyl-1H-indol-3-yl)ethyl)cyclopropanesulfonamide], the pEC50 is over 6.30.

With `CC(C)Cn1cc([C@H](NS(=O)(=O)C2CC2)C(F)(F)F)c2ccc(-c3ccccc3C(F)(F)F)cc21` [Example 325], the pEC50 is over 6.30.

For `CC(C)Cn1cc([C@H](NS(=O)(=O)N(C)C)C(F)(F)F)c2cc(F)c(-c3ccccc3Cl)cc21` [Example 326, {[(1S)-1-[6-(2-chlorophenyl)-5-fluoro-1-(2-methylpropyl)-1H-indol-3-yl]-2,2,2-trifluoroethyl]sulfamoyl}dimethylamine], the negative-log EC50 (pEC50) is over 6.30.

Consider `CC(C)(C)Cn1cc([C@H](NS(=O)(=O)C2CC2)C(F)(F)F)c2cc(F)c(C3CC3)cc21` [Example 327, (S)—N-(1-(6-cyclopropyl-5-fluoro-1-neopentyl-1H-indol-3-yl)-2,2,2-trifluoroethyl)cyclopropanesulfonamide], for which the negative-log EC50 (pEC50) is over 6.30.

On to `CN(C)S(=O)(=O)N[C@@H](c1cn(CC(C)(C)C)c2cc(-c3ccccc3Cl)c(F)cc12)C(F)(F)F` [Example 330, {[(1S)-1-[6-(2-chlorophenyl)-1-(2,2-dimethylpropyl)-5-fluoro-1H-indol-3-yl]-2,2,2-trifluoroethyl]sulfamoyl}dimethylamine], for which the pEC50 was over 6.30.

On to `CC(C)(C)Cn1cc([C@H](NS(=O)(=O)C2CC2)C(F)(F)F)c2ccc(-c3ccccc3Cl)cc21` [Example 332, (S)—N-(1-(6-(2-chlorophenyl)-1-neopentyl-1H-indol-3-yl)-2,2,2-trifluoroethyl)cyclopropanesulfonamide], for which the pEC50 was over 6.30.

In the case of `CC(C)Cn1cc([C@H](NS(=O)(=O)C2CC2)C(F)(F)F)c2cc(F)c(C(C)C)cc21` [Example 334, (S)—N-(2,2,2-trifluoro-1-(5-fluoro-1-isobutyl-6-isopropyl-1H-indol-3-yl)ethyl)cyclopropanesulfonamide], the pEC50 is 5.52 to 6.30.

With `CC(C)c1ccc2c([C@H](NS(=O)(=O)C3CC3)C(F)(F)F)cn(CC(C)(C)C)c2c1` [Example 335, (S)—N-(2,2,2-trifluoro-1-(6-isopropyl-1-neopentyl-1H-indol-3-yl)ethyl)cyclopropanesulfonamide], the pEC50 was over 6.30.

Consider `CC(C)c1cc2c(cc1F)c([C@H](NS(=O)(=O)C1CC1)C(F)(F)F)cn2CC(C)(C)C` [Example 336, (S)—N-(2,2,2-trifluoro-1-(5-fluoro-6-isopropyl-1-neopentyl-1H-indol-3-yl)ethyl)cyclopropanesulfonamide], for which the pEC50 is 5.52 to 6.30.

Take `CC(C)c1cc2c(cc1F)c([C@H](NS(=O)(=O)N(C)C)C(F)(F)F)cn2CC(C)(C)C` [Example 337, {[(1S)-1-[1-(2,2-dimethylpropyl)-5-fluoro-6-(propan-2-yl)-1H-indol-3-yl]-2,2,2-trifluoroethyl]sulfamoyl}dimethylamine]: the pEC50 is 5.52 to 6.30.

Turning to `CN(C)S(=O)(=O)N[C@@H](c1cn(CC(C)(C)C)c2cc(-c3ccccc3Cl)ccc12)C(F)(F)F` [Example 338, {[(1S)-1-[6-(2-chlorophenyl)-1-(2,2-dimethylpropyl)-1H-indol-3-yl]-2,2,2-trifluoroethyl]sulfamoyl}dimethylamine], the pEC50 was over 6.30.

On to `CC(C)Cn1cc([C@H](NS(=O)(=O)N(C)C)C(F)(F)F)c2ccc(C(C)C)cc21` [Example 339, dimethyl({[(1S)-2,2,2-trifluoro-1-[1-(2-methylpropyl)-6-(propan-2-yl)-1H-indol-3-yl]ethyl]sulfamoyl})amine], for which the pEC50 was over 6.30.

As to `CC(C)Cn1cc([C@H](NS(=O)(=O)C2CC2)C(F)(F)F)c2ccc(Cl)cc21` [Example 341, (S)—N-(1-(6-chloro-1-isobutyl-1H-indol-3-yl)-2,2,2-trifluoroethyl)cyclopropanesulfonamide], the negative-log EC50 (pEC50) is over 6.30.

On to `CC(C)(C)Cn1cc([C@H](NS(=O)(=O)C2CC2)C(F)(F)F)c2ccc(Br)cc21` [Example 343, (S)—N-(1-(6-bromo-1-neopentyl-1H-indol-3-yl)-2,2,2-trifluoroethyl)cyclopropanesulfonamide], for which the pEC50 is over 6.30.

In the case of `CC(C)(C)Cn1cc([C@H](NS(=O)(=O)N2CCC2)C(F)(F)F)c2cc(F)c(-c3ccccc3C(F)(F)F)cc21` [Example 346, (S)—N-(2,2,2-trifluoro-1-(5-fluoro-1-neopentyl-6-(2-(trifluoromethyl)phenyl)-1H-indol-3-yl)ethyl)azetidine-1-sulfonamide], the negative-log EC50 (pEC50) is over 6.30.

In the case of `CC(C)(C)Cn1cc([C@H](NS(=O)(=O)N2CCCC2)C(F)(F)F)c2cc(F)c(-c3ccccc3C(F)(F)F)cc21` [Example 347, (S)—N-(2,2,2-trifluoro-1-(5-fluoro-1-neopentyl-6-(2-(trifluoromethyl)phenyl)-1H-indol-3-yl)ethyl)pyrrolidine-1-sulfonamide], the negative logarithm of the EC50 (pEC50) was over 6.30.

As a reminder, the pEC50 is the negative decadic logarithm of the EC50, by convention in mol/L.
